Several values for one entry are separate records, joined by “and”; a condition that tells them apart may be missing. Equal values may be shown once. Read-outs that look alike come from different tables or passages of the source.
Legend:
[1] = tested on: P. falciparum multidrug resistant line Dd2; assay: SYBR Green I-based antiplasmodial assay, asexual blood stage, Dd2; type: cell-based, Plasmodium falciparum
Description: (§1) The antiplasmodial activity of these analogs was assessed in P. falciparum asexual blood stage using a SYBR Green I-based assay. Compounds were tested in both the multidrug resistant line Dd2, and the chloroquine-sensitive line 3D7, to probe any potential for preexisting resistance. […] These methyldeoxaphomin analogs were also cross-screened for cytotoxicity in the human cell line HepG2 to determine their selectivity for the Plasmodium parasite. […] This effect was maintained with analog NPDG-F where both R1 and R2 were substituted with OH groups. […] In addition, the hydroxyl group at carbon 7 seems to be critical for function as a drastic loss of potency was found in NPDG-D as compared to B and C. […]
(§2) Plasmodium blood stage culture
(§3) Parasite culture in the Chakrabarti lab was maintained following a modified Trager and Jensen protocol (Trager & Jensen, 1976) as previously described (Lee et al., 2021) with RPMI 1640 with 25 mM HEPES pH 7.4, 26 mM NaHCO3, 15 mg/L hypoxanthine, 0.5% Albumax II, 25 mg/L gentamycin, and 2% dextrose. Parasites were grown with human A+ erythrocytes obtained from Florida OneBlood. Cultures were kept in an incubator with 5% […]
(§4) Antiplasmodial activity screening
(§5) SYBR Green I-based fluorescence assay was performed as previously described (Lee et al., 2021) following protocols by Smilkstein et. al. (Smilkstein et al., 2004). Asynchronous Dd2 parasites were added to serially diluted compounds and incubated for 72 h at 5% CO2, 95% air at 37°C. Plates were then frozen at -80°C, thawed, and incubated for one hour with 1x SYBR Green I in a lysis buffer (20 mM Tris-HCL, 0.08% saponin, 5 mM EDTA, and 0.8% Triton X-100). Fluorescence was then read on a Synergy Neo2 multimode reader (BioTek Winsooki, VT). […]

[2] = tested on: P. falciparum chloroquine-sensitive line 3D7; assay: SYBR Green I-based antiplasmodial assay, asexual blood stage, 3D7; type: cell-based, Plasmodium falciparum
Description: as §1, §2, §3, §4, §5

[3] = tested on: human HepG2 hepatoma cells; assay: cells; type: cell-based
Description: as §1
Cytotoxicity was assessed using an MTS (3-(4,5-Dimethylthiazol-2-yl)-5-(3-carboxymethoxyphenyl)-2-(4-sulfophenyl)-2H-tetrazolium) absorbance assay with human HepG2 hepatoma cells. Cells were maintained in MEM supplemented with 10%FBS, 1% Antibiotic/Antimycotic, 1 mM sodium pyruvate, and 0.15% sodium bicarbonate in a 5 % CO2, 95% air environment at 37°C. For the assay cells were seeded at a density of 2,250 cells per well on 384-well microtiter plates 24 h prior to compound addition. Following a 48-h incubation with compounds, MTS solution was added to wells and absorbance was read after 2-4 h on a Synergy Neo2 multimode reader (BioTek Winsooki, VT). Compound dose response curves and EC50 determination was performed using CDD Vault normalized to 5% triton and vehicle controls. […]

P. falciparum [4] = assay: Isobologram assay with NPDG-F; type: cell-based, Plasmodium falciparum; conditions: for relationship with NPDG-F at low concentrations: low / very low concentrations; for relationship with NPDG-F at higher concentrations: moderate to high / higher concentrations; for IC50: single compounds, dose–response, Fig. 3A, read-out: Mean IC50 ± SEM
Description: To further explore the relationship of NPDG-F with established actin-interfering drugs, an isobologram study was performed (Fig. 3). NPDG-F was added in combination with four inhibtors known to interfere with actin polymerization including a formin inhibitor SMIFH2, cofilin inhibitor SZ-3, F-actin targeting compound jasplakinolide, and G-actin targeting latrunculin B. The frontline antimalarial DHA was also added as a nonactin inhibitor control. After dose–response curves were generated (Fig. 3A), the fractional inhibitory concentrations (FICs) of NPDG-F and the combination drug were calculated and graphed. […]
as §2, §3, §4
as §5, with “VT). Compound dose response curves and EC50 determination was performed using CDD Vault normalized to 10 µM CQ and vehicle” for “VT).”
For isobologram assessment, inhibitors were tested using a 1:2 dilution with starting concentrations selected as 40 nM for DHA, 100 µM Latrunculin B, 100 µM SMIFH2, and 40 nM for jasplakinolide. These concentrations were selected to provide 2-3 points above […]
EC50s. The test inhibitor methyldeoxaphomin NPDG-F was then added in combination with the aforementioned inhibitors at concentrations ranging from 10 to 0.3125 µM. Dose-response curves were then generated for the available conditions where EC50s could be determined. The fractional inhibitor concentration of both compounds was then determined as described (Fivelman et al., 2004) for the available points and graphed on a scale of 0-1 also using Graphpad Prism version 10. […]

P. falciparum [5] = assay: Parasite reduction ratio (PRR); type: cell-based, Plasmodium falciparum; conditions: 10 × EC50
Description: After a 24 h lag phase, only 10^0.64 parasites are killed within the first replication cycle (48 h). […] We also examined the in vitro killing rate in Dd2 through flow cytometric analysis. […]
Parasite reduction ratio adapted from protocol by Sanz et al (Sanz et al., 2012). In brief, early ring stage mono-infected RBCs at 106 were incubated with a 10 x EC50 concentration of NPDG-F, DHA, or atovaquone for either 24, 48, 72, 96, or 120 h. Following incubations, cells were washed and serially diluted. After 3 weeks, growth was determined via SYBR […]
Green I staining. […]

[6] = Plasmodium falciparum, DD2, 72 h, read-out: Dd2 EC50, means from triplicate experiments ± SEM, 72 h
[7] = Plasmodium falciparum, DD2, read-out: Dd2: Average EC50, average ± SEM of three replicates
[8] = Plasmodium falciparum, DD2, read-out: Dd2: EC50, individual replicates
[9] = Plasmodium falciparum, 3D7, average ± SEM of three replicates, read-out: 3D7: Average EC50
[10] = Plasmodium falciparum, 3D7, individual replicates, read-out: 3D7: EC50
[11] = Plasmodium falciparum, 3D7, means from triplicate experiments ± SEM, read-out: 3D7 EC50
[12] = Homo sapiens, HepG2, 48 h, means from triplicate experiments ± SEM, 48-h incubation, read-out: HepG2 EC50
[13] = Homo sapiens, HepG2, average ± SEM of three replicates, read-out: HepG2: Average EC50
[14] = Homo sapiens, HepG2, individual replicates, read-out: HepG2: EC50
[15] = individual replicates, read-out: HepG2: EC50

Structure (SMILES)	EC50 [1, 6] [µM]	EC50 [1, 7] [µM]	EC50 [1, 8] [µM]	EC50 [2, 9] [µM]	EC50 [2, 10] [µM]	EC50 [2, 11] [µM]	EC50 [3, 12] [µM]	EC50 [3, 13] [µM]	EC50 [3, 14] [µM]	other results
C=C1C(C)C2C(Cc3ccccc3)NC(=O)C23C(=O)C=CC(O)CC(C)CC(C)CC=CC3C1O (stereo not shown) [Methyldeoxaphomin NPDG-E]	2.6	2.6 ± 0.31	2.22	2.8 ± 0.14	2.67	2.8 ± 0.14	23	23 ± 0.92	21.3	EC50 ([1]; read-out: Dd2: EC50, individual replicates): 3.18 µM and 2.28 µM; EC50 ([2]; individual replicates, read-out: 3D7: EC50): 2.6 µM and 3.04 µM; Selectivity Index (SI) ([3]; HepG2 EC50/(mean of Dd2 EC50, 3D7 EC50)): 9; EC50 [3, 15]: 24.7 µM and 23.2 µM
O=C1NC(=S)N(c2cccc(Br)c2)C(=O)/C1=C/c1ccco1 [SMIFH2]										relationship with NPDG-F at low concentrations (P. falciparum [4]): primarily indifferent; relationship with NPDG-F at higher concentrations (P. falciparum [4]): antagonistic; IC50 (P. falciparum [4]): 11.3 ± 1.35 µM
O=C1C(O)=C([C@H]2CC[C@H](c3ccc(Cl)cc3)CC2)C(=O)c2ccccc21 [atovaquone]										99.9% PCT (parasite clearance time) (P. falciparum [5]): more than 96 h; lag phase (P. falciparum [5]): 24 h; log(PRR) (P. falciparum [5]): 5.12
C=C1[C@@H](C)[C@H]2[C@H](Cc3ccccc3)NC(=O)[C@]23C(=O)/C=C/C(=O)C[C@@H](C)C[C@H](C)C/C=C/[C@H]3[C@@H]1O [Methyldeoxaphomin NPDG-A]	> 5	> 5	> 5	> 5	> 5	> 5	> 25	> 25	> 25	cytotoxicity in HepG2 at the highest concentration tested ([3]; 25 µM): no inhibition
CC1CC=CC2C=C(CO)C(C)C3C(Cc4ccccc4)NC(=O)C23C(=O)C=CC(=O)C(O)C(C)C1 (stereo not shown) [Methyldeoxaphomin NPDG-D]	> 5	> 5	> 5	> 5	> 5	> 5	8.2	8.2 ± 0.07	8.3	EC50 [3, 15]: 8.1 µM
C/C1=C/C(=O)O[C@@H]2C[C@@H](CC[C@H](C)/C=C\CC1)O[C@@](O)([C@@H]1CSC(=O)N1)C2 [latrunculin B]										fractional inhibitory concentration (FIC) (P. falciparum [4]; combination with NPDG-F): highest FIC values overall; IC50 (P. falciparum [4]): 34.1 ± 1.51 µM
C[C@H]1[C@@H](O)O[C@@H]2O[C@@]3(C)CC[C@H]4[C@H](C)CC[C@@H]1[C@@]24OO3 [DHA, dihydroartemisinin]										99.9% PCT (parasite clearance time) (P. falciparum [5]): 32.5 h; lag phase (P. falciparum [5]): 0 h; IC50 (P. falciparum [4]; Plasmodium falciparum): 0.005 ± 0.001 µM; relationship with NPDG-F at low concentrations (P. falciparum [4]): somewhat synergistic; relationship with NPDG-F at higher concentrations (P. falciparum [4]): antagonistic
